Test results published in patent publication US20260124167A1, “SIRTUIN ACTIVATOR OR EXPRESSION ENHANCER, NAD+ INCREASING AGENT, AND SENESCENT CELL INHIBITOR” (WAKUNAGA PHARMACEUTICAL CO., LTD., priority 2022, published 2026).

Columns and labels:
SIRT1 protein [1] = experiment: SIRT1 protein amount-increasing effect in liver and heart (in vivo); set-up: species or system mice; conditions: animals prepared as in (12) (SAMR1, SAMP8), repeated oral administration for two weeks; FIG. 13
p53 protein = experiment: Suppression of cellular senescence marker p53 protein in the hippocampus (in vivo); conditions: SAMP8 mice, repeated oral administration for six weeks; FIG. 5
Description: (§1) (a) About 5 mg of S-1-propenylcysteine (cis/trans mixture) produced in Preparation Example 2 was weighed precisely, and dissolved in 10 mL of purified water to prepare an administration liquid. (b) About 6 mg of S-1-propenylcysteine (cis/trans mixture) produced in Preparation Example 2 was weighed precisely and dissolved in 1 mL of culture liquid. The liquid was used as a stock solution, diluted appropriately, and subjected to an in vitro test.
(§2) Animals for evaluating the biological activity were bred as follows. Senescence-accelerated mice SAMP8 (male) for testing were purchased from Japan SLC, Inc. After purchase, the animals were acclimatized for one week and used as animals for the evaluation tests.
(§3) After repeated oral administration of the sample prepared in the above (1) (a) to animals for the evaluation tests in the above (2) for six weeks, hippocampi of such animals were excised. After the hippocampi were crushed using an automatic tissue crusher, the cells were lysed with a RIPA cell lysis buffer manufactured by Millipore Corporation which was diluted 10-fold with purified water added with a protease inhibitor and a phosphatase inhibitor manufactured by Roche, and then centrifuged (10,000 rpm, 10 min, 4° C.), and the supernatant was used as a cell extract. The cell extract was used for analysis by Western Blotting according to a conventional method. […]

KIM-1 = experiment: Inhibitory action on kidney injuries (in vivo), KIM-1 Western Blotting; conditions: SAMP8 mice, repeated oral administration for two weeks, FIG. 8
Description: as §1, §2
(§4) After repeated oral administration of the sample prepared in the above (1) (a) to the animals for the evaluation tests in the above (2) for two weeks, kidneys of such animals were excised. After the kidneys were crushed using an automatic tissue crusher, the cells were lysed with an RIPA cell lysis buffer manufactured by Millipore Corporation which was diluted 10-fold with purified water added with a protease inhibitor and a phosphatase inhibitor manufactured by Roche and then centrifuged (10,000 rpm, 10 min, 4° C.), and the supernatant was used as a cell extract. The cell extract was used for analysis by Western Blotting according to a conventional method. […]

NAD^+ [2] = experiment: NAD+ amount increasing action in kidney, skeletal muscle, and liver (in vivo); conditions: SAMP8 mice, single oral dose, 60 minutes later; FIG. 10
Description: as §1, §2
A single dose of the sample prepared in the above (1) (a) was orally administrated to animals for the evaluation tests in the above (2), and then cerebral cortexes, livers, kidneys, and skeletal muscles of such animals were extracted 60 minutes later. The NAD^+ amounts in the cerebral cortexes, livers, kidneys, and skeletal muscles were measured using NAD^+/NADH Assay Kit manufactured by Dojindo Laboratories. S-1-propenylcysteine increased the NAD^+ amount.

SIRT1 protein [3] = experiment: SIRT1 protein increasing action in cerebral cortex, hippocampus, heart, lung, liver, kidney, and skeletal muscle (in vivo); conditions: SAMP8 mice, about 10 mg in 10 mL liquid, repeated oral administration for two weeks; FIG. 11
Description: as §2
About 10 mg of S-1-propenylcysteine (cis/trans mixture) produced in Preparation Example 2 was weighed precisely, and dissolved in 10 mL of purified water to prepare an administration liquid. After repeated oral administration of the prepared sample to animals for the evaluation tests in the above (2) for two weeks, cerebral cortexes, hippocampi, hearts, lungs, livers, kidneys, and skeletal muscles of such animals were excised. After the cerebral cortexes, hippocampi, hearts, lungs, livers, kidneys, and skeletal muscles were crushed using an automatic tissue crusher, the cells were lysed with a RIPA cell lysis buffer manufactured by Millipore Corporation which was diluted 10-fold with purified water added with combined protease/phosphatase inhibitors manufactured by Thermo Fisher Scientific K.K., and then centrifuged (10,000 rpm, 10 min, 4° C.), and the supernatant was used as a cell extract. The cell extract was used for analysis by Western Blotting according to a conventional method. […]

SIRT1 = target: T1, SIRT1 (Mus musculus, UniProt Q923E4); experiment: SIRT1 activation action (in vivo), cerebral cortex lysate, SIRT1_GLO kit; conditions: SAMP8 mice, single oral dose, 180 minutes after administration; FIG. 2
T1 construct: from tissue; host or cells: cerebral cortex of SAMP8 mice
T1 sequence (Q923E4 1-737): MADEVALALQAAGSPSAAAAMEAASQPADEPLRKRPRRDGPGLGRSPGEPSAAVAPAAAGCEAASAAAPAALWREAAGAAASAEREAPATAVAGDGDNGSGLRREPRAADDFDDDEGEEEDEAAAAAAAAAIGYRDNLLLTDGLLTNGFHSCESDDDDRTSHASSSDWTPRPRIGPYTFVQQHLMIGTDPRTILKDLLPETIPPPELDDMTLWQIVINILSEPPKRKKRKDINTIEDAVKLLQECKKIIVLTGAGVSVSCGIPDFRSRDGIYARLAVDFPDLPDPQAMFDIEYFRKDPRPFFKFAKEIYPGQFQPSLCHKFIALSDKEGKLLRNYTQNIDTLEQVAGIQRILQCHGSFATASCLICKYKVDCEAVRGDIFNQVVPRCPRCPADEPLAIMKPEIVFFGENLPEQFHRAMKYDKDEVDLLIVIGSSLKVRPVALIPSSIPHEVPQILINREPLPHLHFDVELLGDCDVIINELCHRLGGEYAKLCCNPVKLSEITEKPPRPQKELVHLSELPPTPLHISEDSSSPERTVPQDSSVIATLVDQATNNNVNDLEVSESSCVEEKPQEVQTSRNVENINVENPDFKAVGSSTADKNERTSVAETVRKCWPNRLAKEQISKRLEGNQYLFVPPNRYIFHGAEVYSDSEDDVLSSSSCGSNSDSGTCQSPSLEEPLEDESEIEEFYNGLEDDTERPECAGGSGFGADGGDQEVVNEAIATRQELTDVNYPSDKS
Description: as §1, §2
A SIRT1_GLO kit manufactured by Promega Corporation was purchased to measure the sirtuins activity. A lysate of the cerebral cortex was placed in a 96-well plate, various reaction reagents were added, and then luminous intensity of luciferase was measured by a plate reader.
A single dose of the sample prepared in the above (1) (a) was orally administrated to animals for the evaluation tests in the above (2), and then cerebral cortices of such animals were extracted 15, 30, 60, and 180 minutes later. […] Centrifugation was performed and the sirtuins activity in the supernatant thereof was measured. […]

p16 gene = experiment: Suppression of senescent cell marker p16 gene expression in the kidney (in vivo); conditions: SAMP8 mice, repeated oral administration for two weeks, real-time PCR; FIG. 7
Description: as §1, §2
(§5) After repeated oral administration of the sample prepared in the above (1) (a) to the animals for the evaluation tests in the above (2) for two weeks, kidneys of such animals were excised. The kidneys were crushed using an automatic tissue crusher, and then RNA was extracted using a TRIzol solution manufactured by Thermo Fisher Scientific K.K. CDNA was synthesized using PRIMEScript RT reagent Kit with gEraser manufactured by Takara. The synthesized cDNA was subjected to real-time PCR using KAPA SYBR Fast qPCR kit manufactured by Nippon Genetics Co., Ltd. The results are shown in FIG. 7. […]

p21 gene = experiment: Suppression of senescent cell marker p21 gene expression in the kidney (in vivo); conditions: SAMP8 mice, repeated oral administration for two weeks, real-time PCR; FIG. 7
Description: as §1, §2, §5

SIRT1 protein [4] = experiment: SIRT1 protein increasing action (in vivo), hippocampus, Western Blotting; conditions: SAMP8 mice, repeated oral administration for two weeks; FIG. 3
Description: as §1, §2
as §3, with “two” for “six”, “combined protease/phosphatase inhibitors” for “a protease inhibitor and a phosphatase inhibitor”, “Thermo Fisher Scientific K.K.,” for “Roche,”

SIRT1 protein [5] = experiment: SIRT1 protein increasing action in hypothalamus (in vivo); conditions: SAMP8 mice fed diet mixed with sample (0.001% liquid) for 10 months; FIG. 12
Description: S-1-propenylcysteine (cis/trans mixture) produced in Preparation Example 2 was dissolved at a concentration of 0.001% in purified water to prepare an administration liquid. Animals for evaluating the biological activity were bred as follows. Senescence-accelerated mice SAMR1 (male) and SAMP8 (male) for testing were purchased from Japan SLC, Inc. After purchase, the animals were acclimatized for one week and used as animals for the evaluation tests. These animals for the evaluation tests were fed with regular diet and SAMP8 were fed with the diet mixed with the sample prepared above for 10 months, and then hypothalamuses of such animals were excised. After the hypothalamuses were crushed using an automatic tissue crusher, the cells were lysed with a RIPA cell lysis buffer manufactured by Millipore Corporation which was diluted 10-fold with purified water added with combined protease/phosphatase inhibitors manufactured by Thermo Fisher Scientific K.K., and then centrifuged (10,000 rpm, 10 min, 4° C.), and the supernatant was used as a cell extract. The cell extract was used for analysis by Western Blotting according to a conventional method. An anti-SIRT1 antibody (manufactured by Biolegend) and an anti-β-actin antibody (manufactured by Fujifilm Wako Pure Chemical Corporation) were used as antibodies. S-1-propenylcysteine increased the SIRT1 protein mass.

SIRT1 gene = experiment: Enhancement of SIRT1 gene expression in kidney (in vivo), real-time PCR; conditions: SAMP8 mice, repeated oral administration for two weeks, FIG. 6
Description: as §1, §2
After repeated oral administration of the sample prepared in the above (1) (a) to the animals for the evaluation tests in the above (2) for two weeks, kidneys of such animals were excised. The kidneys were crushed using an automatic tissue crusher, and then RNA was extracted using a TRIzol solution manufactured by Thermo Fisher Scientific K.K. CDNA was synthesized using PRIMEScript RT reagent Kit with gEraser manufactured by Takara. The synthesized CDNA was subjected to real-time PCR using KAPA SYBR Fast qPCR kit manufactured by Nippon Genetics Co., Ltd. The results are shown in FIG. 6. S-1-propenylcysteine increased the SIRT1 expression in the mouse kidney.

NAD^+ [6] = experiment: NAD+ amount increasing action (in vivo), NAD+/NADH Assay Kit; conditions: SAMP8 mice, single oral dose (180 minutes later) and mixed with food for one month; FIG. 4
Description: as §1, §2
A single dose of the sample prepared in (1) (a) was orally administered to animals for the evaluation tests in the above (2), and then cerebral cortices of such animals were excised 180 minutes later. In addition, the sample prepared in the above (1) (a) was mixed with food and fed to animals for the evaluation tests in the above (2) for one month, and then cerebral cortices of such animals were excised. The NAD^+ amount in the cerebral cortices was measured using NAD^+/NADH Assay Kit manufactured by Dojindo Laboratories. S-1-propenylcysteine increased NAD^+ amount.

[7] = test system: Senescence-accelerated mice SAMP8; experiment: Cognitive/memory retention action (in vivo), passive avoidance test; conditions: mixed with food for four months, holding trial after two months, FIG. 9
Description: as §1, §2
The sample prepared in the above (1) (a) was mixed with food and fed to animals for evaluation test in the above (2) for four months, and then a passive avoidance test was performed. The passive avoidance test is a test utilizing a habit that a mouse prefers a dark place, and on Day 1, a mouse already in a bright room was moved to a dark room while receiving an electrical shock (50 V/1 second), and the time it took for the mouse to enter the dark room was taken as response latency of an acquisition trial. After two months, the mouse was put in the bright room again and the time it took to move to the dark room (the response latency of a holding trial) was used as an index of memory.

lipocalin-2 (NGAL) = experiment: Inhibitory action on kidney injuries (in vivo), NGAL Western Blotting; conditions: SAMP8 mice, repeated oral administration for two weeks, FIG. 8
Description: as §1, §2, §4

Compound: CC=CSC[C@H](N)C(=O)O [S-1-propenylcysteine]
- SIRT1 protein mass in livers and hearts (SIRT1 protein [1]): increased
- p53 protein mass in hippocampus (p53 protein): reduced
- KIM-1 (marker of kidney injuries) in kidney (KIM-1): reduced
- NAD^+ amount in cerebral cortexes, livers, kidneys, and skeletal muscles (NAD^+ [2]): increased
- SIRT1 protein mass in cerebral cortexes, hippocampi, hearts, lungs, livers, kidneys, and skeletal muscles (SIRT1 protein [3]): increased
- sirtuin activity in cerebral cortex (SIRT1): increased
- cells expressing p16 gene in the kidneys (p16 gene): reduced
- cells expressing p21 gene in the kidneys (p21 gene): reduced
- SIRT1 protein mass in hippocampus (SIRT1 protein [4]): increased
- SIRT1 protein mass in hypothalamus (SIRT1 protein [5]): increased
- SIRT1 expression in kidney (SIRT1 gene): increased
- NAD^+ amount in cerebral cortices (NAD^+ [6]): increased
- cognitive and memory functions (response latency, passive avoidance test) [7]: ameliorated aging-related decline in cognitive and memory functions
- NGAL (marker of kidney injuries) in kidney (lipocalin-2 (NGAL)): reduced
